Experimental data from publication PMC7922108, “Three Novel Biphenanthrene Derivatives and a New Phenylpropanoid Ester from Aerides multiflora and Their α-Glucosidase Inhibitory Activity” (Plants, 2021).
Converted amounts (≈) assume the structure as drawn. “Also recorded” adds a separate entry of the source.

Tests used:
[1] = biological target: Yeast α-glucosidase enzyme; experiment: α-Glucosidase inhibition assay (PNPG substrate); assay type: biochemical; conditions: for IC50 / IC50 (μg/mL), α-glucosidase inhibitory activity: NA = no inhibitory activity, acarbose positive control
Description: Yeast α-glucosidase enzyme was used in this study. In general, α-glucosidase enzymes can be obtained from several sources, for example, Saccharomyces cerevisiae, Rattus norvegicus, and GANC-human.
The assays were performed following previous protocols. […] Each sample was initially dissolved in 50% DMSO. Then, 0.1 U/mL of α-glucosidase (40 μL) in phosphate buffer (pH 6.8) was added to each well of a 96-well plate which contained the sample solution (10 μL). The plate was pre-incubated at 37 °C for 10 min. Then, 2 mM p-nitrophenol-α-D-glucopyranoside (50 μL) was added, and the mixture was incubated again at 37 °C for 20 min. Finally, 1 M Na2CO3 solution (100 μL) was added to terminate the reaction. The absorbance of the mixture was measured at 405 nm using a microplate reader. Two-fold serial dilution was performed for IC50 determination. The drug acarbose was used as the positive control.

[2] = test system: Yeast α-glucosidase enzyme; experiment: Enzyme kinetics study, Lineweaver–Burk plot and secondary plot; assay type: biochemical; conditions: for Mode of enzyme inhibition: from Lineweaver–Burk plot; for Km / Vmax: PNPG 0.25–2.0 mM
Description: A kinetics study was then performed on compound 3 to analyze the mode of enzyme inhibition using various substrate concentrations (0.25–2.0 mM).
The mode of enzyme inhibition of the test compound was determined using the double reciprocal Lineweaver–Burk plot (1/V vs. 1/[S]). The experiment was performed by varying the PNPG concentrations (0.25, 0.5, 1.0, and 2.0 mM) in the absence or presence of compound 3 (4 μM and 8 μM) or acarbose (930 μM and 465 μM). The secondary plot was constructed by replotting the slopes of the lines against inhibitor concentrations, and the Ki was calculated from the line equation of the plot.

IC50 [1] [µM]	IC50 (μg/mL), α-glucosidase inhibitory activity [1] [µg/mL]	Structure (SMILES)	also measured
115 ± 9.1	29.7 ± 2.3 (≈ 115 µM)	COc1cc(O)cc2c1-c1cc(O)c(O)cc1CC2 [5-methoxy-9,10-dihydrophenanthrene-2,3,7-triol]	–
225 ± 7.8	61.2 ± 2.2 (≈ 225 µM)	COc1cc2c(cc1O)CCc1cc(O)cc(OC)c1-2 [6-Methoxy coelonin (5), 6-methoxycoelonin]	–
30.9 ± 1.9	16.8 ± 1.0 (≈ 31 µM)	COc1cc2c(cc1O)CCc1c(Oc3cc4c(cc3OC)-c3c(cc(O)cc3OC)CC4)c(O)cc(OC)c1-2 [Aerimultin A (1), aerimultin A]	–
166 ± 7.7	44.9 ± 2.1 (≈ 166 µM)	COc1c(O)cc2c3c1COc1cc(O)cc(c1-3)CC2 [Imbricatin (7), imbricatin]	–

Further lines, the compound ahead of its results:

Structure (SMILES)	IC50 [1] [µM]	IC50 (μg/mL), α-glucosidase inhibitory activity [1] [µg/mL]	also measured
COc1cc2c(ccc3c(-c4c(O)cc5c6c4ccc4cc(O)c(OC)c(c46)CO5)c(O)cc(OC)c32)cc1O [Aerimultin B (2), aerimultin B]	77 ± 2.5	41.8 ± 1.3 (≈ 77.9 µM)	–
COc1cc(O)c(-c2c(O)cc(OC)c3c2ccc2cc(O)c(O)cc23)c2ccc3cc(O)c(O)cc3c12 [Aerimultin C (3), aerimultin C]	5.2 ± 0.7	2.7 ± 0.4 (≈ 5.29 µM)	α-Glucosidase inhibitory activity (in words) [1]: most potent activity; Mode of enzyme inhibition [2]: non-competitive inhibition; also recorded: potent non-competitive inhibitor; Mode of enzyme inhibition ([2]; listed as aerimultin (3)): non-competitive type of inhibition; Ki ([2]; from secondary plot (slopes vs inhibitor concentrations)): 4.18 µM; Km ([2]; inhibitor dose 4 μM): 1220 µM; Vmax ([2]; inhibitor dose 4 μM): 0.055 ∆OD/min; Km ([2]; inhibitor dose 8 μM): 1200 µM; Vmax ([2]; inhibitor dose 8 μM): 0.035 ∆OD/min
COc1cc2c(ccc3c(-c4c(O)cc(OC)c5c4ccc4cc(O)c(OC)cc45)c(O)cc(OC)c32)cc1O [Agrostonin (8), agrostonin]	37.2 ± 4.5	20.1 ± 2.5 (≈ 37.3 µM)	–
COc1cc(CCCOC(=O)CCc2ccc(O)cc2)ccc1O [Dihydroconiferyl dihydro-p-coumarate (9), dihydroconiferyl dihydro-p-coumarate]	267 ± 8.6	88.1 ± 2.9 (≈ 267 µM)	–
COc1cc(CCC(=O)OCCCc2cc(OC)c(O)c(OC)c2)ccc1O [Dihydrosinapyl dihydroferulate (4), dihydrosinapyl dihydroferulate]	–	–	α-Glucosidase inhibitory activity (in words) [1]: total loss of activity
COc1cc(O)cc(CCc2ccc(O)c(OC)c2)c1 [Gigantol (6), gigantol]	191 ± 6.8	52.5 ± 1.9 (≈ 191 µM)	–
